Common to all, as to type: cell-based
For experiment [1], the system named is human pharyngeal squamous-cell carcinoma cells (Fadu). As to the kind of experiment: scratch assay, migration of Fadu cells. To be noted: 10 μM, 48 hours, control group 28.76 ± 4.08. On the procedure: (§1) In the scratch assay, the cell migration rate was negatively correlated with the inhibitory effect of the drug component on tumor cell migration ability. The cell migration inhibition experiment was described as follows: tumor cells were cultured in vitro, cells in logarithmic growth phase were collected and seeded evenly in a 24-well plate at a density of 1-2×10^5 cells/well; the cells were cultured in a cell incubator until a monolayer was formed; a scratch tool was used to make a “-” (straight) scratch on the monolayer of cells; the cells were washed 1-3 times with PBS, and a medium (with 2% fetal bovine serum) containing specific test components was added to the culture. Experimental grouping: PBS control group; polypeptide or derivative thereof treatment group (N1-N54), 10 μM. Three independent parallel wells were set up in each group, and the cells were cultured continuously in a cell incubator for 48 hours. […] At least 3 representative images for each well were taken. ImageJ software was used to count the migration distance of the cells, and the cell migration rate was calculated as: cell migration rate (%)=(width of original scratch−width of current scratch)/width of original scratch×100.
This example was a scratch assay to evaluate the inhibitory effect of the polypeptide or derivative thereof (N1-N54) on the migration ability of human pharyngeal squamous-cell carcinoma cells (Fadu). The experimental method was as described in Example 2.

Experiment [2] concerns human colon cancer cells (HCT-116). Put plainly: scratch assay, migration of HCT-116 cells. The conditions noted are these: HCT-116, 10 μM, 48 hours; control group 47.78 ± 6.07. On the procedure:
as §1
This example was a scratch assay to evaluate the inhibitory effect of the polypeptide or derivative thereof (N1-N54) on the migration ability of human colon cancer cells (HCT-116). The experimental method was as described in Example 2.

Experiment [3] concerns human oral epidermoid carcinoma KB cells. Put plainly: scratch assay, migration of KB cells. To be noted: 10 μM, 48 hours, control group 54.03 ± 4.21. On the procedure:
as §1
This example was a scratch assay to evaluate the inhibitory effect of the polypeptide or derivative thereof (N1-N54) on the migration ability of human oral epidermoid carcinoma cells (KB). The experimental method was as described in Example 2.

In experiment [4] the test system is human melanoma cells (A375). As to the kind of experiment: scratch assay, migration of A375 cells. To be noted: A375, 10 μM, 48 hours; control group 44.03 ± 6.21. On the procedure: as §1
This example was a scratch assay to evaluate the inhibitory effect of the polypeptide or derivative thereof (N1-N54) on the migration ability of human melanoma cells (A375). The experimental method was as described in Example 2.

The test system of experiment [5] is human thyroid cancer cells (FRO). Put plainly: scratch assay, migration of FRO cells. The conditions noted are these: 10 μM, 48 hours, control group 60.34 ± 8.32. On the procedure:
as §1
This example was a scratch assay to evaluate the inhibitory effect of the polypeptide or derivative thereof (N1-N54) on the migration ability of human thyroid cancer cells (FRO). The experimental method was as described in Example 2.

The subject of experiment [6] is human lung squamous carcinoma cells (NCI-H226). Put plainly: scratch assay, migration of NCI-H226 cells. To be noted: NCI-H226, 10 μM, 48 hours; control group 65.31 ± 3.19. On the procedure: as §1
This example was a scratch assay to evaluate the inhibitory effect of the polypeptide or derivative thereof (N1-N54) on the migration ability of human lung squamous carcinoma cells (NCI-H226). The experimental method was as described in Example 2.

In experiment [7] the test system is human liver adenocarcinoma cells (SK-HEP-1). As to the kind of experiment: transwell invasion assay, SK-HEP-1 cells. The conditions noted are these: SK-HEP-1 transwell invasion, 10 μM, 24 hours; control group 767 ± 91. The text has this:
(§2) The Transwell chamber system was used in the transwell cell invasion experiment. The chamber has an upper layer and a lower layer, which are separated by an artificial semipermeable membrane in the middle. The upper surface of the semipermeable membrane is coated with a layer of artificial matrigel to simulate extracellular matrix. Cells that have invaded through the matrigel and semi-permeable membrane will attach to the lower surface of the semi-permeable membrane. The invasion ability is evaluated by counting the number of cells on the lower surface of the semi-permeable membrane. The number of cells that have invaded is negatively correlated with the inhibitory effect of the drug on the invasion ability of the tumor cells. Transwell invasion assay was performed as follows: tumor cells were cultured in vitro, cells in logarithmic growth phase were collected, and cell suspension was prepared with fresh serum-free medium at a density of 2-3×10^5 cells/mL. Cells were inoculated, 100 μL/well cell suspension (serum-free medium) in the upper chamber and 600 μL/well complete culture medium in the lower chamber. After incubated in 37° C., 5% CO2 incubator for 4-5 hours, serum-free medium (100 μL/well) was added to the control group, and serum-free medium containing polypeptide or derivative thereof (N1-N54) was added to the upper chamber of the treatment group (100 μL/well), the final concentration of the peptide or derivative thereof in the upper chamber was 10 μM. The cells were incubated continuously for 24 hours, and then fixed with methanol and stained with crystal violet. Images were taken under a microscope and the number of invaded cells was counted with ImageJ.
This example was a transwell cell invasion experiment to evaluate the inhibitory effect of the polypeptide or derivative thereof (N1-N54) on the invasion ability of human liver adenocarcinoma cells (SK-HEP-1). The experimental method was as described in Example 4.

Experiment [8] has as its system human pancreatic cancer cells (PANC-1). Put plainly: transwell migration assay, PANC-1 cells. The conditions noted are these: PANC-1 transwell migration, 10 μM, 24 hours; control group 360 ± 60. On the procedure:
as §2, with “migration” for “invasion”, “middle.” for “middle. The upper surface of the semipermeable membrane is coated with a layer of artificial matrigel to simulate extracellular matrix.”, “migrated” for “invaded”, “the” for “the matrigel and”
This example was a transwell cell migration experiment to evaluate the inhibitory effect of the polypeptide or derivative thereof (N1-N54) on the migration ability of human pancreatic cancer cells (PANC-1). The experimental method was as described in Example 3.

On to “N17: SEQ ID NO: 1 with addition of two amino acids to the carboxyl terminal (YRVRFLAKENVTQDAEDNCT)”, for which the “Migration rate (%) (mean ± SD, P)” value in experiment [1] is on record as 8.78 ± 2.34,*** %; in experiment [2], 23.09 ± 2.41,*** %; in experiment [3], 14.35 ± 2.52,** %; in experiment [4], 14.35 ± 2.52,*** %; in experiment [5], 11.38 ± 2.27,*** %; in experiment [6], 43.38 ± 4.83,** %. Further, the “Number of cells (mean ± SD, P), invaded cells” value in experiment [7] is 165 ± 28,****. In experiment [8], the “Number of cells (mean ± SD, P), migrated cells” value is recorded as 244 ± 14,*.

As to “N18: SEQ ID NO: 1 with addition of one amino acid at the amino terminal and one at the carboxyl terminal (FYRVRFLAKENVTQDAEDNC)”, the “Migration rate (%) (mean ± SD, P)” value in experiment [1] is reported as 6.29 ± 2.62,*** %; in experiment [2], 16.96 ± 4.87,** %; in experiment [3], 12.67 ± 2.33,*** %; in experiment [4], 12.67 ± 1.33,*** %; in experiment [5], 22.96 ± 5.05%; in experiment [6] it was 48.17 ± 3.85,** %. Besides, the “Number of cells (mean ± SD, P), invaded cells” value in experiment [7] was 262 ± 21,****. Also, the “Number of cells (mean ± SD, P), migrated cells” value in experiment [8] is listed as 232 ± 24,*.

Turning to “N19: SEQ ID NO: 1 with deletion of positions 1-5 and 15-18 and addition of two amino acids at the carboxyl terminal (LAKENVTQDRC)”, the “Migration rate (%) (mean ± SD, P)” value in experiment [1] is on record as 17.23 ± 3.53,* %; in experiment [2] it was 9.80 ± 2.62,*** %; in experiment [3] it was 8.14 ± 2.21,*** %; in experiment [4], 12.93 ± 3.34,*** %; in experiment [5], 25.59 ± 4.08,** %; in experiment [6] it was 16.80 ± 8.02,*** %. The “Number of cells (mean ± SD, P), invaded cells” value in experiment [7] is 348 ± 40,***. For the same substance, in experiment [8], the “Number of cells (mean ± SD, P), migrated cells” value was 238 ± 27,*.

Take “N20: SEQ ID NO: 1 with addition of one amino acid at the amino terminal and deletion of position 18 (RYRVRFLAKENVTQDAED)”: the “Migration rate (%) (mean ± SD, P)” value is on record as 15.21 ± 4.90,* % in experiment [1]; 8.17 ± 1.07,*** % in experiment [2]; 6.92 ± 3.28,*** % in experiment [3]; 14.61 ± 3.12,*** % in experiment [4]; 24.03 ± 8.61,* % in experiment [5]; 19.54 ± 6.51,*** % in experiment [6]. Besides, the “Number of cells (mean ± SD, P), invaded cells” value in experiment [7] is on record as 242 ± 22,****. The “Number of cells (mean ± SD, P), migrated cells” value in experiment [8] is 244 ± 23,*.

Regarding “N21: SEQ ID NO: 1 with deletion of positions 1-5 and 15-18 and addition of one amino acid at the amino terminal (SLAKENVTQD)”, the “Migration rate (%) (mean ± SD, P)” value in experiment [1] is recorded as 16.87 ± 6.77,* %; in experiment [2], 12.85 ± 3.12,*** %; in experiment [3], 9.87 ± 2.84,*** %; in experiment [4], 8.29 ± 3.50,*** %; in experiment [5], 30.45 ± 4.94,* %; in experiment [6], 13.58 ± 6.67,*** %. Also, the “Number of cells (mean ± SD, P), invaded cells” value in experiment [7] is 356 ± 60,***. In experiment [8], the “Number of cells (mean ± SD, P), migrated cells” value was 216 ± 12,***.

Regarding “N22: SEQ ID NO: 1 with substitution A7R, deletion of three amino acids at the amino terminal and of positions 15-18 (RFLRKENVTQD)”, the “Migration rate (%) (mean ± SD, P)” value is 15.11 ± 4.99,* % in experiment [1]; 7.78 ± 3.07,*** % in experiment [2]; 10.02 ± 2.35,*** % in experiment [3]; 5.12 ± 3.69,*** % in experiment [4]; 42.34 ± 4.98,* % in experiment [5]; 18.69 ± 5.25,*** % in experiment [6]. The “Number of cells (mean ± SD, P), invaded cells” value in experiment [7] is 430 ± 51,**. Moreover, the “Number of cells (mean ± SD, P), migrated cells” value in experiment [8] is 200 ± 18,***.

Take “N23: SEQ ID NO: 1 with substitution A7R, deletion of position 11 and of positions 15-18 (YRVRFLRKENTQDAED)”: the “Migration rate (%) (mean ± SD, P)” value is reported as 16.93 ± 3.67,* % in experiment [1]; 13.08 ± 2.64,*** % in experiment [2]; 10.57 ± 1.7,*** % in experiment [3]; 11.13 ± 2.15,*** % in experiment [4]; 34.39 ± 4.10,* % in experiment [5]; 13.24 ± 8.19,*** % in experiment [6]. For the same substance, the “Number of cells (mean ± SD, P), invaded cells” value in experiment [7] is listed as 456 ± 45,**. Besides, the “Number of cells (mean ± SD, P), migrated cells” value in experiment [8] was 200 ± 14,***.

For “N24: SEQ ID NO: 1 with substitution A7R, deletion of positions 1-2 and of position 18 (VRFLRKENVTQDAED)”, the “Migration rate (%) (mean ± SD, P)” value was 14.07 ± 5.12,* % in experiment [1]; 12.14 ± 2.49,*** % in experiment [2]; 24.03 ± 4.21,* % in experiment [3]; 15.79 ± 4.16,** % in experiment [4]; 16.54 ± 3.19,** % in experiment [5]; 15.74 ± 8.70,*** % in experiment [6]. Besides, in experiment [7], the “Number of cells (mean ± SD, P), invaded cells” value was 332 ± 30,***. In addition, the “Number of cells (mean ± SD, P), migrated cells” value in experiment [8] is reported as 239 ± 24,*.

These data come from US20220280594A1, “APPLICATION OF POLYPEPTIDE OR DERIVATIVE THEREOF” (CHENGDU HUITAI BIOMEDICINE CO., LTD., priority 2019, published 2022).
